Measured values: US20250243189A1, “HERBICIDAL IMIDAZOLE-CONTAINING COMPOUNDS” (SYNGENTA CROP PROTECTION AG, priority 2022, published 2025)

Legend:
Type in all cases: in vivo
Details in all cases: 250 g/ha, evaluated after 13 days, five-point scale
IPOHE [1] = test: Pre-emergence herbicidal glasshouse test
Procedure: (§1) Seeds of a variety of test species are sown in standard soil in pots Amaranthus retoflexus (AMARE), Echinochloa crus-galli (ECHCG), Setaria faberi (SETFA)). After cultivation for one day (pre-emergence) or after 8 days cultivation (post-emergence) under controlled conditions in a glasshouse (at 24/16° C., day/night; 14 hours light; 65% humidity), the plants are sprayed with an aqueous spray solution derived from the formulation of the technical active ingredient in acetone/water (50:50) solution containing 0.5% Tween 20 (polyoxyethelyene sorbitan monolaurate, CAS RN 9005-64-5). Compounds are applied at 250 g/ha unless otherwise stated. The test plants are then grown in a glasshouse under controlled conditions in a glasshouse (at 24/16° C., day/night; 14 hours light; 65% humidity) and watered twice daily. After 13 days for pre and post-emergence, the test is evaluated for the percentage damage caused to the plant. The biological activities are shown in the following table on a five-point scale (5=81-100%; 4=61-80%; 3=41-60%; 2=21-40%; 1=0-20%).

[2] = test system: Echinochloa crus-galli (ECHCG); test: Pre-emergence herbicidal glasshouse test
Procedure: as §1

[3] = test system: Amaranthus retoflexus (AMARE); test: Pre-emergence herbicidal glasshouse test
Procedure: as §1

AMAPA [4] = test: Pre-emergence herbicidal glasshouse test
Procedure: [Worded in the source for another organism; this organism is reported under the same test.] as §1

IPOHE [5] = test: Post-emergence herbicidal glasshouse test
Procedure: as §1

[6] = test system: Echinochloa crus-galli (ECHCG); test: Post-emergence herbicidal glasshouse test
Procedure: as §1

[7] = test system: Amaranthus retoflexus (AMARE); test: Post-emergence herbicidal glasshouse test
Procedure: as §1

AMAPA [8] = test: Post-emergence herbicidal glasshouse test
Procedure: [Worded in the source for another organism; this organism is reported under the same test.] as §1

Row | SMILES | percentage damage caused to the plant, IPOHE (IPOHE [1]) | percentage damage caused to the plant, ECHCG [2] | percentage damage caused to the plant, AMARE [3] | percentage damage caused to the plant, AMAPA (AMAPA [4]) | percentage damage caused to the plant, IPOHE (IPOHE [5]) | percentage damage caused to the plant, ECHCG [6] | percentage damage caused to the plant, AMARE [7] | percentage damage caused to the plant, AMAPA (AMAPA [8])
1 | FC(F)(F)c1cn(Cc2ncc(Cl)cn2)c(-c2sccc2Cl)n1 [Compound 1.002] | 1 (1=0-20%) | 1 (1=0-20%) | 2 (2=21-40%) | 2 (2=21-40%) | 1 (1=0-20%) | 1 (1=0-20%) | 1 (1=0-20%) | 1 (1=0-20%)
2 | CS(=O)(=O)c1ccc(-c2nc(C(F)(F)F)cn2Cc2ncc(Cl)cn2)s1 [Compound 1.003] | 5 (5=81-100%) | 5 (5=81-100%) | 5 (5=81-100%) | 5 (5=81-100%) | 4 (4=61-80%) | 5 (5=81-100%) | 4 (4=61-80%) | 4 (4=61-80%)
3 | Cn1ccc(-c2nc(C(F)(F)F)cn2Cc2ncc(Cl)cn2)n1 [Compound 1.004] | 1 (1=0-20%) | 1 (1=0-20%) | 1 (1=0-20%) | 1 (1=0-20%) | 1 (1=0-20%) | 1 (1=0-20%) | 1 (1=0-20%) | 1 (1=0-20%)
4 | Cc1nnsc1-c1nc(C(F)(F)F)cn1Cc1ncc(Cl)cn1 [Compound 1.007] | 5 (5=81-100%) | 4 (4=61-80%) | 5 (5=81-100%) | 5 (5=81-100%) | 4 (4=61-80%) | 2 (2=21-40%) | 5 (5=81-100%) | 4 (4=61-80%)
5 | FC(F)(F)c1cn(Cc2ncc(Cl)cn2)c(-c2csc(Cl)n2)n1 [Compound 1.009] | 1 (1=0-20%) | 1 (1=0-20%) | 4 (4=61-80%) | 3 (3=41-60%) | 1 (1=0-20%) | 1 (1=0-20%) | 2 (2=21-40%) | 2 (2=21-40%)
6 | FC(F)(F)c1cn(Cc2ncc(Cl)cn2)c(-c2cc(Cl)cs2)n1 [Compound 1.010] | 4 (4=61-80%) | 5 (5=81-100%) | 5 (5=81-100%) | 5 (5=81-100%) | 4 (4=61-80%) | 4 (4=61-80%) | 4 (4=61-80%) | 4 (4=61-80%)
7 | Cc1ccc(-c2nc(C(F)(F)F)cn2Cc2ncc(Cl)cn2)s1 [Compound 1.011] | 5 (5=81-100%) | 5 (5=81-100%) | 5 (5=81-100%) | 5 (5=81-100%) | 2 (2=21-40%) | 4 (4=61-80%) | 4 (4=61-80%) | 4 (4=61-80%)
8 | FC(F)(F)c1cn(Cc2ncc(Cl)cn2)c(-c2cnn(C3CC3)c2)n1 [Compound 1.015] | 5 (5=81-100%) | 5 (5=81-100%) | 5 (5=81-100%) | 5 (5=81-100%) | 5 (5=81-100%) | 4 (4=61-80%) | 5 (5=81-100%) | 4 (4=61-80%)
9 | FC(F)n1cc(-c2nc(C(F)(F)F)cn2Cc2ncc(Cl)cn2)cn1 [Compound 1.017] | 5 (5=81-100%) | 5 (5=81-100%) | 5 (5=81-100%) | 5 (5=81-100%) | 5 (5=81-100%) | 5 (5=81-100%) | 5 (5=81-100%) | 5 (5=81-100%)
10 | Cc1nc(-c2nc(C(F)(F)F)cn2Cc2ncc(Cl)cn2)co1 [Compound 1.018] | 1 (1=0-20%) | 1 (1=0-20%) | 2 (2=21-40%) |  | 2 (2=21-40%) | 1 (1=0-20%) | 2 (2=21-40%) | 1 (1=0-20%)
11 | FC(F)(F)c1cn(Cc2ncc(Cl)cn2)c(-c2ncco2)n1 [Compound 1.019] | 1 (1=0-20%) | 1 (1=0-20%) | 1 (1=0-20%) | 1 (1=0-20%) | 1 (1=0-20%) | 1 (1=0-20%) | 1 (1=0-20%) | 1 (1=0-20%)
12 | FC(F)(F)c1cn(Cc2ncc(Cl)cn2)c(-c2cnco2)n1 [Compound 1.020] | 4 (4=61-80%) | 1 (1=0-20%) | 5 (5=81-100%) | 3 (3=41-60%) | 4 (4=61-80%) | 1 (1=0-20%) | 3 (3=41-60%) | 2 (2=21-40%)
13 | FC(F)(F)c1cn(Cc2ncc(Cl)cn2)c(-c2nccs2)n1 [Compound 1.022] | 1 (1=0-20%) | 1 (1=0-20%) |  | 1 (1=0-20%) | 1 (1=0-20%) | 1 (1=0-20%) | 1 (1=0-20%) | 1 (1=0-20%)
14 | FC(F)(F)c1cn(Cc2ncc(Cl)cn2)c(-c2cscn2)n1 [Compound 1.023] | 1 (1=0-20%) | 1 (1=0-20%) |  | 1 (1=0-20%) | 2 (2=21-40%) | 1 (1=0-20%) | 1 (1=0-20%) | 1 (1=0-20%)
15 | FC(F)Oc1cccc(Cn2cc(C(F)(F)F)nc2-c2ccc(Cl)s2)n1 [Compound 1.048] |  | 1 (1=0-20%) | 1 (1=0-20%) | 1 (1=0-20%) | 1 (1=0-20%) | 1 (1=0-20%) | 1 (1=0-20%) | 1 (1=0-20%)
